Values of other authors, collected in PubChem BioAssay AID1259409 (Chemical Carcinogenesis Research Information System (CCRIS), 2018).
Several values for one entry are separate records, joined by “and”; a condition that tells them apart may be missing. Equal values may be shown once.

Test system: rodent chemically induced tumor inhibition, incidence and multiplicity
Experiment: CCRIS tumor inhibitor studies
Details: Species: RAT, Promoter: NONE USED

COc1ccc2c(c1)c(CC(=O)O)c(C)n2C(=O)c1ccc(Cl)cc1
tumour outcome (control, treated, inhibition, significance) (Carcinogen: DIETHYLNITROSAMINE, 55-18-5, N-METHYL-N-NITROSOUREA, 684-93-5, N-BUTYL-N-(4-HYDROXYBUTYL)NITROSAMINE, 3817-11-6, 1,2-DIM, Carcinogen: DIETHYLNITROSAMINE, 55-18-5, N-METHYL-N-NITROSOUREA, 684-93-5, N-BUTYL-N-(4-HYDROXYBUTYL)NITROSAMINE, 3817-11-6, 1,2-DIM, Dose [Inhibitor]: 0, 20 PPM IN DRINKING WATER FOR 23 WK BEGINNING 1 WK POST CARCINOGEN TREATMENT (STUDY DURATION: 28 WK), Route [Inhibitor]: ORAL, Strain/Sex: F344/MALE, Target Tissue: Type of Lesion: LUNG: ADENOMA, Dose [Carcinogen]: 100 MG/KG BW DEN ONCE, 20 MG/KG BW MNU ONCE ON DAYS 6,9, AND 12, 0.05% BBN IN DRINKING WATER FOR FIRST TWO WK, 40 MG/KG, Dose [Carcinogen]: 100 MG/KG BW DEN ONCE, 20 MG/KG BW MNU ONCE ON DAYS 6,9, AND 12, 0.05% BBN IN DRINKING WATER FOR FIRST TWO WK, 40 MG/KG): 8/20 (40%), 2/19 (11%), 73%, p<0.05 | tumour outcome (control, treated, inhibition, significance) (Carcinogen: DIETHYLNITROSAMINE, 55-18-5, N-METHYL-N-NITROSOUREA, 684-93-5, N-BUTYL-N-(4-HYDROXYBUTYL)NITROSAMINE, 3817-11-6, 1,2-DIM, Carcinogen: DIETHYLNITROSAMINE, 55-18-5, N-METHYL-N-NITROSOUREA, 684-93-5, N-BUTYL-N-(4-HYDROXYBUTYL)NITROSAMINE, 3817-11-6, 1,2-DIM, Dose [Inhibitor]: 0, 20 PPM IN DRINKING WATER FOR 23 WK BEGINNING 1 WK POST CARCINOGEN TREATMENT (STUDY DURATION: 28 WK), Route [Inhibitor]: ORAL, Strain/Sex: F344/MALE, Target Tissue: Type of Lesion: THYROID: FOLLICULAR ADENOMA, Dose [Carcinogen]: 100 MG/KG BW DEN ONCE, 20 MG/KG BW MNU ONCE ON DAYS 6,9, AND 12, 0.05% BBN IN DRINKING WATER FOR FIRST TWO WK, 40 MG/KG, Dose [Carcinogen]: 100 MG/KG BW DEN ONCE, 20 MG/KG BW MNU ONCE ON DAYS 6,9, AND 12, 0.05% BBN IN DRINKING WATER FOR FIRST TWO WK, 40 MG/KG): 6/20 (30%), 2/19 (11%), 63%, not significant and 1/20 (5%), 1/19 (5%), 0%, not significant | tumour outcome (control, treated, inhibition, significance) (Carcinogen: DIETHYLNITROSAMINE, 55-18-5, N-METHYL-N-NITROSOUREA;684-93-5, N-BUTYL-N-(4-HYDROXYBUTYL)NITROSAMINE, 3817-11-6, 1,2-DIME, Carcinogen: DIETHYLNITROSAMINE, 55-18-5, N-METHYL-N-NITROSOUREA;684-93-5, N-BUTYL-N-(4-HYDROXYBUTYL)NITROSAMINE, 3817-11-6, 1,2-DIME, Dose [Inhibitor]: 0, 20 PPM IN DRINKING WATER FOR 23 WK BEGINNING 1 WK POST CARCINOGEN TREATMENT (STUDY DURATION: 28 WK), Route [Inhibitor]: ORAL, Strain/Sex: F344/MALE, Target Tissue: Type of Lesion: SMALL INTESTINE: ADENOMA, Dose [Carcinogen]: 100 MG/KG BW DEN ONCE, 20 MG/KG BW MNU ONCE ON DAYS 6,9, AND 12, 0.05% BBN IN DRINKING WATER FOR FIRST TWO WK, 40 MG/KG, Dose [Carcinogen]: 100 MG/KG BW DEN ONCE, 20 MG/KG BW MNU ONCE ON DAYS 6,9, AND 12, 0.05% BBN IN DRINKING WATER FOR FIRST TWO WK, 40 MG/KG): 5/20 (25%), 0/19 (0%), 100%, p<0.05 | tumour outcome (control, treated, inhibition, significance) (Carcinogen: DIETHYLNITROSAMINE, 55-18-5, N-METHYL-N-NITROSOUREA, 684-93-5, N-METHYL-N-(4-HYDROXYBUTYL)NITROSAMINE, 3817-11-6, 1,2-DI, Carcinogen: DIETHYLNITROSAMINE, 55-18-5, N-METHYL-N-NITROSOUREA, 684-93-5, N-METHYL-N-(4-HYDROXYBUTYL)NITROSAMINE, 3817-11-6, 1,2-DI, Dose [Inhibitor]: 0, 20 PPM IN DRINKING WATER FOR 23 WK BEGINNING 1 WK POST CARCINOGEN TREATMENT (STUDY DURATION: 28 WK), Route [Inhibitor]: ORAL, Strain/Sex: F344/MALE, Target Tissue: Type of Lesion: SMALL INTESTINE: ADENOCARCINOMA, Dose [Carcinogen]: 100 MG/KG BW DEN ONCE, 20 MG/KG BW MNU ONCE ON DAYS 6,9, AND 12, 0.05% BBN IN DRINKING WATER FOR FIRST TWO WK, 40 MG/KG, Dose [Carcinogen]: 100 MG/KG BW DEN ONCE, 20 MG/KG BW MNU ONCE ON DAYS 6,9, AND 12, 0.05% BBN IN DRINKING WATER FOR FIRST TWO WK, 40 MG/KG): 2/20 (10%), 0/19 (0%), 100%, not significant | tumour outcome (control, treated, inhibition, significance) (Carcinogen: METHYLAZOXYMETHANOL, 590-96-5, Dose [Inhibitor]: 7.5 MG/KG BW DAILY FOR 3 WK STARTING 27 WK AFTER THE START OF CARCINOGEN TREATMENT (STUDY DURATION: 30 WK), Route [Inhibitor]: INTRARECTAL, Strain/Sex: DONRYU/MALE, Target Tissue: Type of Lesion: LARGE INTESTINE: ADENOCARCINOMA, Dose [Carcinogen]: 20 MG/KG BW 1/WK FOR 6 WK): 19/23 (83%), 15/30 (50%), 40%, p<0.05
